# In ChEMBL document CHEMBL3872214, “Synthesis and evaluation of in vivo antioxidant, in vitro antibacterial, MRSA and antifungal activity of novel substituted isatin N-(2,3,4,6-tetra-O-acetyl-β-d-glucopyranosyl)thiosemicarbazones” (Eur J Med Chem, 2016):
# Legend:
# Format in all cases: functional
# [1] = Antifungal activity against Saccharomyces cerevisiae SH20 after 72 hrs by agar dilution method
# Escherichia coli = assay: Antibacterial activity against Escherichia coli ATCC 25922 after 18 to 20 hrs by two-fold microbroth dilution method
# Klebsiella aerogenes = assay: Antibacterial activity against Enterobacter aerogenes ATCC 13048 after 18 to 20 hrs by two-fold microbroth dilution method
# [2] = Antifungal activity against Fusarium oxysporum M42 after 72 hrs by agar dilution method
# Rattus norvegicus [3] = assay: (§1) Antioxidant activity in CCL4-intoxicated Wistar albino rat assessed as liver cytosolic catalase activity per mg protein at 100 mg/kg, ip administered for 7 consecutive days after DL-alpha-tocopherol acetate treatment followed by CCL4 dosing measured after 24 hrs by H2O2 based assay (reference value: 220.15 +/- 11.43 U)
# Staphylococcus aureus [4] = assay: Antibacterial activity against methicillin-resistant Staphylococcus aureus 198-1 after 18 to 20 hrs by two-fold microbroth dilution method
# Staphylococcus aureus [5] = assay: Antibacterial activity against methicillin-resistant Staphylococcus aureus 198-2 after 18 to 20 hrs by two-fold microbroth dilution method
# Bacillus subtilis = assay: Antibacterial activity against Bacillus subtilis ATCC 11774 after 18 to 20 hrs by two-fold microbroth dilution method
# [6] = system: Staphylococcus epidermidis; assay: Antibacterial activity against Staphylococcus epidermidis ATCC 12228 after 18 to 20 hrs by two-fold microbroth dilution method
# Rattus norvegicus [7] = assay: as §1, with “superoxide dismutase” for “catalase”, “xanthine” for “H2O2”, “5.27” for “220.15”, “0.22” for “11.43”
# Klebsiella pneumoniae = assay: Antibacterial activity against Klebsiella pneumoniae ATCC 4352 after 18 to 20 hrs by two-fold microbroth dilution method
# Candida albicans = assay: Antifungal activity against Candida albicans ATCC 7754 after 72 hrs by agar dilution method; conditions: ATCC 7754, 72 h
# Staphylococcus aureus [8] = assay: Antibacterial activity against methicillin-resistant Staphylococcus aureus 198-3 after 18 to 20 hrs by two-fold microbroth dilution method
# Rattus norvegicus [9] = assay: as §1, with “glutathione peroxidase” for “catalase”, “spectrophotometric analysis” for “assay”, “0.28” for “220.15”, “0.01” for “11.43”
# Aspergillus niger = assay: Antifungal activity against Aspergillus niger 439 after 72 hrs by agar dilution method; conditions: Aspergillus niger, 439, 72 h
# Pseudomonas aeruginosa = assay: Antibacterial activity against Pseudomonas aeruginosa […] after 18 to 20 hrs by two-fold microbroth dilution method
# Staphylococcus aureus [10] = assay: Antibacterial activity against Staphylococcus aureus ATCC 11632 after 18 to 20 hrs by two-fold microbroth dilution method
Compound,MIC [1] [µM],MIC (Escherichia coli) [µM],MIC (Klebsiella aerogenes) [µM],MIC [2] [µM],Activity (Rattus norvegicus [3]) [U],MIC (Staphylococcus aureus [4]) [µM],MIC (Staphylococcus aureus [5]) [µM],MIC (Bacillus subtilis) [µM],MIC [6] [µM],Activity (Rattus norvegicus [7]) [U],MIC (Klebsiella pneumoniae) [µM],MIC (Candida albicans) [µM],MIC (Staphylococcus aureus [8]) [µM],Activity (Rattus norvegicus [9]) [U],MIC (Aspergillus niger) [µM],MIC (Pseudomonas aeruginosa) [µM],MIC (Staphylococcus aureus [10]) [µM]
CC(=O)OC[C@H]1O[C@@H](NC(=S)N/N=C2/C(=O)Nc3ccccc32)[C@H](OC(C)=O)[C@@H](OC(C)=O)[C@@H]1OC(C)=O,100,50,50,100,295.32,200,200,100,100,5.81,50,200,200,1.77,100,50,200
CC(=O)OC[C@H]1O[C@@H](NC(=S)N/N=C2/C(=O)N(Cc3ccccc3)c3ccccc32)[C@H](OC(C)=O)[C@@H](OC(C)=O)[C@@H]1OC(C)=O,400,100,100,100,250.63,200,200,200,200,8.6,100,400,200,1.69,100,100,200
C=CCN1C(=O)/C(=N/NC(=S)N[C@@H]2O[C@H](COC(C)=O)[C@@H](OC(C)=O)[C@H](OC(C)=O)[C@H]2OC(C)=O)c2ccccc21,100,100,100,200,357.47,200,200,200,200,9.91,100,100,200,0.27,200,100,200
CC(=O)OC[C@H]1O[C@@H](NC(=S)N/N=C2/C(=O)N(C)c3ccccc32)[C@H](OC(C)=O)[C@@H](OC(C)=O)[C@@H]1OC(C)=O,100,12.5,12.5,200,350,100,100,100,100,9.52,12.5,100,100,0.67,25,25,100
Oc1ccc(/C=C/c2cc(O)cc(O)c2)cc1 [RESVERATROL],,,,,282.12,,,,,7.31,,,,0.33,,,
CC(=O)OC[C@H]1O[C@@H](NC(=S)N/N=C2/C(=O)N(CC(C)C)c3ccccc32)[C@H](OC(C)=O)[C@@H](OC(C)=O)[C@@H]1OC(C)=O,100,12.5,12.5,100,375.45,100,100,100,100,9.88,12.5,100,100,0.91,100,12.5,100
CC(=O)OC[C@H]1O[C@@H](NC(=S)N/N=C2/C(=O)N(CCc3ccccc3)c3ccccc32)[C@H](OC(C)=O)[C@@H](OC(C)=O)[C@@H]1OC(C)=O,400,100,100,200,260.61,200,200,200,200,8.45,100,400,200,1.73,200,100,200
CC(=O)OC[C@H]1O[C@@H](NC(=S)N/N=C2/C(=O)Nc3ccc(I)cc32)[C@H](OC(C)=O)[C@@H](OC(C)=O)[C@@H]1OC(C)=O,6.25,50,50,12.5,399.75,6.25,6.25,6.25,6.25,10.85,25,6.25,6.25,0.35,6.25,25,6.25
O=C(O)c1cn(C2CC2)c2cc(N3CCNCC3)c(F)cc2c1=O [CIPROFLOXACIN],,1.56,1.56,,,,,3.12,3.12,,1.56,,,,,1.56,3.12
CN[C@H](CC(C)C)C(=O)N[C@H]1C(=O)N[C@@H](CC(N)=O)C(=O)N[C@H]2C(=O)N[C@H]3C(=O)N[C@H](C(=O)N[C@H](C(=O)O)c4cc(O)cc(O)c4-c4cc3ccc4O)[C@H](O)c3ccc(c(Cl)c3)Oc3cc2cc(c3O[C@@H]2O[C@H](CO)[C@@H](O)[C@H](O)[C@H]2O[C@H]2C[C@](C)(N)[C@H](O)[C@H](C)O2)Oc2ccc(cc2Cl)[C@H]1O [VANCOMYCIN],,,,,,1.65,1.65,0.83,2.1,,,,1.65,,,,1.21
Clc1ccc(COC(Cn2ccnc2)c2ccc(Cl)cc2Cl)c(Cl)c1 (configuration not stated) [MICONAZOLE],3.12,,,3.12,,,,,,,,3.12,,,1.56,,
CC(=O)OC[C@H]1O[C@@H](NC(=S)N/N=C2/C(=O)Nc3ccc(Br)cc32)[C@H](OC(C)=O)[C@@H](OC(C)=O)[C@@H]1OC(C)=O,12.5,50,50,12.5,394.43,1.56,1.56,6.25,6.25,10.47,50,12.5,3.12,0.32,6.25,50,6.25
CC(=O)OC[C@H]1O[C@@H](NC(=S)N/N=C2/C(=O)Nc3ccc(F)cc32)[C@H](OC(C)=O)[C@@H](OC(C)=O)[C@@H]1OC(C)=O,6.25,50,50,12.5,379.56,1.56,3.12,3.12,3.12,9.84,50,6.25,1.56,0.39,12.5,50,3.12
CC(=O)OC[C@H]1O[C@@H](NC(=S)N/N=C2/C(=O)Nc3ccc(Cl)cc32)[C@H](OC(C)=O)[C@@H](OC(C)=O)[C@@H]1OC(C)=O,12.5,50,50,12.5,390.63,0.78,0.78,6.25,6.25,10.2,50,12.5,0.78,0.31,12.5,50,6.25
CCCN1C(=O)/C(=N/NC(=S)N[C@@H]2O[C@H](COC(C)=O)[C@@H](OC(C)=O)[C@H](OC(C)=O)[C@H]2OC(C)=O)c2ccccc21,400,12.5,12.5,100,367.63,100,100,100,100,9.77,12.5,400,100,0.84,50,12.5,100
CC(=O)OC[C@H]1O[C@@H](NC(=S)N/N=C2/C(=O)Nc3ccc(C)cc32)[C@H](OC(C)=O)[C@@H](OC(C)=O)[C@@H]1OC(C)=O,25,25,25,100,258.47,12.5,12.5,25,12.5,5.91,25,100,12.5,1.7,100,25,12.5
COc1cccc(OC)c1C(=O)N[C@@H]1C(=O)N2[C@@H]1SC(C)(C)[C@@H]2C(=O)O [METHICILLIN],,,,,,> 200,> 200,,,,,,> 200,,,,
